According to publication PMC7438494 (Communications Biology, 2020):
“And” between values parts separate entries of the source, which are not always exact repeats. Equal entries are not always repeated. Where two headings read alike, the source gives them in different places.

Molecular target: yeast mitochondrial ATP synthase (Saccharomyces cerevisiae, UniProt P00854+P61829)
Test: biochemical
Settings: frozen yeast mito, 60 min; for inhibition at 1 µM: read-out: % inhibition; for activity at 6 µM / inhibition at 6 µM: Bedaquiline 6 μM
[1] = 1st exp (1-11-19), Bedaquiline 0.05 μM
[2] = 1st exp (1-11-19), Bedaquiline 0.1 μM
[3] = 1st exp (1-11-19), Bedaquiline 0.5 μM
[4] = 1st exp (1-11-19), Bedaquiline 1 μM
[5] = 1st exp (1-11-19), Bedaquiline 1.4 μM
[6] = 1st exp (1-11-19), Bedaquiline 2 μM
[7] = 1st exp (1-11-19), Bedaquiline 3 μM
[8] = 1st exp (1-11-19), Bedaquiline 4 μM
[9] = 2nd exp (1-29-19), Bedaquiline 0.005 μM (duplicate)
[10] = 2nd exp (1-29-19), Bedaquiline 0.05 μM
[11] = 2nd exp (1-29-19), Bedaquiline 0.1 μM
[12] = 2nd exp (1-29-19), Bedaquiline 0.5 μM
[13] = 2nd exp (1-29-19), Bedaquiline 1 μM
[14] = 2nd exp (1-29-19), Bedaquiline 1.4 μM
[15] = 2nd exp (1-29-19), Bedaquiline 2 μM
[16] = 2nd exp (1-29-19), Bedaquiline 4 μM
[17] = 3rd exp (2-1-19), Bedaquiline 0.005 μM
[18] = 3rd exp (2-1-19), Bedaquiline 0.05 μM
[19] = 3rd exp (2-1-19), Bedaquiline 0.1 μM

COc1nc2ccc(Br)cc2cc1[C@@H](c1ccccc1)[C@@](O)(CCN(C)C)c1cccc2ccccc12 [BDQ, Bedaquiline]
Cyanide sensitive ATP synthesis [1]: 49.0688 nmol/min/mg
activity at 0.05 µM [1]: 106%
inhibition at 0.05 µM [1]: -6.06%
Cyanide sensitive ATP synthesis [2]: 39.561 nmol/min/mg
activity at 0.1 µM [2]: 85.5%
inhibition at 0.1 µM [2]: 14.5%
Cyanide sensitive ATP synthesis [3]: 35.6774 nmol/min/mg
activity at 0.5 µM [3]: 77.1%
inhibition at 0.5 µM [3]: 22.9%
Cyanide sensitive ATP synthesis [4]: 21.3622 nmol/min/mg
activity at 1 µM [4]: 46.2%
inhibition at 1 µM [4]: 53.8%
Cyanide sensitive ATP synthesis [5]: 15.4854 nmol/min/mg
activity at 1.4 µM [5]: 33.5%
inhibition at 1.4 µM [5]: 66.5%
Cyanide sensitive ATP synthesis [6]: 8.026 nmol/min/mg
activity at 2 µM [6]: 17.3%
inhibition at 2 µM [6]: 82.7%
Cyanide sensitive ATP synthesis [7]: 3.204 nmol/min/mg
activity at 3 µM [7]: 6.92%
inhibition at 3 µM [7]: 93.1%
Cyanide sensitive ATP synthesis [8]: 1.232 nmol/min/mg
activity at 4 µM [8]: 2.66%
inhibition at 4 µM [8]: 97.3%
activity at 6 µM (1st exp (1-11-19)): 1.64%
inhibition at 6 µM (1st exp (1-11-19)): 98.4%
% activity [9]: 96.7896%
% inhibition [9]: -3.9401% and 3.21%
Cyanide sensitive ATP synthesis [9]: 54.583 nmol/min/mg and 50.828 nmol/min/mg
activity at 0.005 µM [9]: 104%
Cyanide sensitive ATP synthesis [10]: 50.1533 nmol/min/mg
activity at 0.05 µM [10]: 95.5%
inhibition at 0.05 µM [10]: 4.5%
Cyanide sensitive ATP synthesis [11]: 50.0836 nmol/min/mg
activity at 0.1 µM [11]: 95.4%
inhibition at 0.1 µM [11]: 4.63%
Cyanide sensitive ATP synthesis [12]: 46.4023 nmol/min/mg
activity at 0.5 µM [12]: 88.4%
inhibition at 0.5 µM [12]: 11.6%
Cyanide sensitive ATP synthesis [13]: 33.1052 nmol/min/mg
activity at 1 µM [13]: 63%
inhibition at 1 µM [13]: 37%
Cyanide sensitive ATP synthesis [14]: 15.7394 nmol/min/mg
activity at 1.4 µM [14]: 30%
inhibition at 1.4 µM [14]: 70%
Cyanide sensitive ATP synthesis [15]: 6.265 nmol/min/mg
activity at 2 µM [15]: 11.9%
inhibition at 2 µM [15]: 88.1%
activity at 4 µM [16]: 1.16%
inhibition at 4 µM [16]: 98.8%
activity at 6 µM (2nd exp (1-29-19)): 0.645%
inhibition at 6 µM (2nd exp (1-29-19)): 99.4%
Cyanide sensitive ATP synthesis [17]: 55.7209 nmol/min/mg
activity at 0.005 µM [17]: 101%
inhibition at 0.005 µM [17]: -1.01%
Cyanide sensitive ATP synthesis [18]: 53.0953 nmol/min/mg
activity at 0.05 µM [18]: 96.2%
inhibition at 0.05 µM [18]: 3.75%
Cyanide sensitive ATP synthesis [19]: 53.6873 nmol/min/mg
activity at 0.1 µM [19]: 97.3%
inhibition at 0.1 µM [19]: 2.68%
